For two compounds, inhibition and IC50 results are on record in ChEMBL document CHEMBL6103552, “Identification of peptide-based hepatitis B virus capsid inhibitors based on the viral core protein” (Bioorg Med Chem Lett, 2025).

The source made the active and inactive calls. Unless noted, no cut-off for these calls is given here. Residues, ends and D or L forms follow the SMILES beside them.

Usually IC50 stands for the concentration at which inhibition is half-maximal. The low end stands for greater potency in that assay, the high end for weaker potency in that assay.

Common to all, as to assay type: subcellular
Experiment [1] deals with Core antigen (Hepatitis B virus) (UniProt Q03732). In words: Inhibition of Hepatitis B virus capsid formation at 3 uM treated during cell-free wild type HBV Cp synthesis using wheat germ lysates and HBV Cp RNA by Native capsid assay based western blot analysis.
For experiment [2] the target is unchanged. In words: Inhibition of Hepatitis B virus capsid formation at 100 uM treated during cell-free HBV Cp T33N mutant synthesis using wheat germ lysates and HBV Cp RNA by Denatured capsid assay based western blot analysis. On the technique in general: Immunoblotting shows a protein as a band on a membrane.
The target is the same in experiment [3]. In words: Inhibition of Hepatitis B virus capsid formation at 100 uM treated during cell-free wild type HBV Cp synthesis using wheat germ lysates and HBV Cp RNA by Native capsid assay based western blot analysis.
For experiment [4] the target is unchanged. In words: Inhibition of Hepatitis B virus capsid formation at 10 uM treated during cell-free HBV Cp T33N mutant synthesis using wheat germ lysates and HBV Cp RNA by Denatured capsid assay based western blot analysis.
Experiment [5] concerns the target Core antigen (Hepatitis B virus, UniProt Q03732). In words: Inhibition of Hepatitis B virus capsid formation treated during cell-free wild type HBV Cp synthesis using wheat germ lysates and HBV Cp RNA by Denatured capsid assay based western blot analysis.

Chain of Core antigen (Hepatitis B virus) (Q03732 as listed by the source): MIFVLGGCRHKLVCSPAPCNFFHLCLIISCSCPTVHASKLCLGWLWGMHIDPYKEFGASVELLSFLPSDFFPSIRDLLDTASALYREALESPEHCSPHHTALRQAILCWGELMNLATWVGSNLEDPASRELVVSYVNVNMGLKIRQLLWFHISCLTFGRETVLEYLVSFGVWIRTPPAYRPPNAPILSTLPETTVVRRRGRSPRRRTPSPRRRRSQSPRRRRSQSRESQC
Chain of Core antigen (Q03732 whole entry): as the sequence (Q03732 as listed by the source) above

For the compound `CCOC(=O)C1=C(CN2CCOCC2)NC(c2nccs2)=NC1c1ccc(F)cc1Br` (stereo not given), the inhibition entry in experiment [1] was “Active”.
Consider `CC[C@H](C)[C@H](NC(=O)[C@H](Cc1c[nH]cn1)NC(=O)[C@H](Cc1ccccc1)NC(=O)[C@H](Cc1c[nH]c2ccccc12)NC(=O)[C@H](CC(C)C)NC(=O)[C@H](CC(C)C)NC(=O)[C@H](CCC(N)=O)NC(=O)[C@H](CCCNC(=N)N)NC(=O)[C@H](Cc1ccccc1)NC(=O)[C@H](CCCCN)NC(C)=O)C(=O)N[C@@H](CO)C(=O)N[C@@H](CS)C(=O)N[C@@H](CC(C)C)C(=O)N[C@H](C(=O)N[C@@H](Cc1ccccc1)C(N)=O)[C@@H](C)O` (Ac-KFRQLLWFHISCLTF-NH2), for which the inhibition result is “Active; Comparable Activity To Gls4, Positive Control” in experiment [2]; “Active; Significantly Inhibited Hbv-Capsid Formation Of 72 Peptides Tested” in experiment [3]; “Active; Greater Efficacy Compared To Gls4 Observed” in experiment [4]. Half-maximal inhibition in experiment [5] (IC50) was put at 43.7 µM.
